Data: US10703751B2, “Amino-imidazopyridine derivatives as Janus kinase inhibitors and pharmaceutical use thereof” (LEO Pharma A/S, priority 2017, dated 2020)
Like-named read-outs stand apart in the source and are kept apart here.

Legend:
JAK1 = JAK1 (Homo sapiens (Human), UniProt P23458); assay: JAK1 kinase assay (HTRF); format: biochemical; settings: for JAK2/JAK1 ratio / JAK3/JAK1 ratio: ratio of the respective EC50
Experimental: (§1) Human baculovirus-expressed Janus kinase (JAK) 1, 2, 3 and tyrosin kinase (TYK) 2 were purchased from Carna Biosciences, Inc (#08-144, -045, -046, -147 resp.). All four purified enzymes contain only the catalytic domain. JAK1 (aa 850-1154) and TYK2 (aa 871-1187) are expressed with an N-terminally fused GST-tag, and JAK2 and JAK3 with an N-terminally fused His-tag. Inhibition of phosphorylation of a synthetic peptide was measured in an HTRF-based assay (CisBio #62TKOPEC). First, 75 nL of test compound solution (100% DMSO) was added to a white shallow 384-well plate (NUNC #264706) using a Labcyte ECHO 550 liquid handler. Thereafter, 1 μL of compound dilution buffer (50 mM HEPES, 0.05% bovine serum albumin) and 2 μL of TK solution (TK substrate-biotin in kinase buffer [1× enzymatic buffer from HTRFKinEASE TK kit, 1 mM DTT]) was added. Then, 5 μL kinase-ATP mix (prepared in kinase buffer) was added to the wells and the plates were incubated at RT for 20 (JAK2, 3 and TYK2) to 40 (JAK1) min. For all four kinases a concentration of ATP that corresponded to the Km for ATP was used. The final concentrations of buffers, substrate, kinase and ATP were: JAK1: 50 mM Hepes buffer pH 7.0, 0.01% BSA, 10 mM MgCl2, 1 mM DTT, 7 μM ATP, 50 nM SEB, 1 μM TK Substrate-Biotin and 5 ng/well JAK1; JAK2: 50 mM Hepes buffer pH 7.0, 0.01% BSA, 5 mM MgCl2, 1 mM DTT, 4 μM ATP, 1 μM TK Substrate-Biotin and 0.1 ng/well JAK2; JAK3: 50 mM Hepes buffer pH 7.0, 0.01% BSA, 5 mM MgCl2, 1 mM DTT, 2 μM ATP, 1 μM TK Substrate-Biotin and 0.3 ng/well JAK3; TYK2: 50 mM Hepes buffer pH 7.0, 0.01% BSA, 5 mM MgCl2, 1 mM DTT, 13 μM ATP, 50 nM SEB, 1 μM TK Substrate-Biotin and 0.8 ng/well TYK2. Thereafter, the kinase reaction was stopped by adding 4 μL detection mix (final concentrations: 50 mM Hepes buffer pH 7.0, 0.01% BSA, 0.8 M KF, 20 mM EDTA, 42 nM Streptavidin-XL665 and 1:400 STK Ab Cryptate) and the plates were incubated overnight in the dark. A PerkinElmer Envision reader was used to quantify the HTRF signal using the following filters; 320 nm excitation filter, 665 nm emission filter and a 615 nm 2nd emission filter. A ratio ((665/615)×10^4) was calculated for each well.

STAT6 bla-RA1 cells = assay: STAT6 assay (IL-4 stimulated reporter cells); format: cell-based; settings: for EC50: interleukin 4 10 ng/mL; for STAT5/STAT6 EC50 ratio (selectivity for STAT6 over STAT5): selectivity for STAT6 over STAT5, from EC50
Experimental: Twenty-five μL of a STAT6 bla-RA1 (Invitrogen # K1243) cell suspension was seeded with a density of 30-40,000 cells/well in 384-well Black View-plates (PerkinElmer #6007460) with clear bottom in assay medium (Opti-MEM (Invitrogen #11058-021)+0.5% heat inactivated fetal bovine Serum (Invitrogen #10082-147)+1% non-essential amino acids (Invitrogen #11140-050)+1% sodium pyruvate (Invitrogen #11360-070)+1% penicillin/streptomycin (Invitrogen #15140-122)); containing 550 ng/mL of CD40 ligand (Invitrogen # PHP0025). The cell plates were incubated overnight in a humidified 37° C. air/CO2 (95%/5%) incubator. The following day, 125 nL of solutions of test compounds and reference compounds were transferred to cell plates using the Labcyte Echo 550 liquid handler. The plates were then incubated for 1 h in a humidified 37° C. air/CO2 (95%/5%) incubator. Hereafter recombinant human interleukin 4 (Invitrogen # PHC0045) were added to the plates also using the Labcyte Echo 550 to a final concentration of 10 ng/mL. The cells were then incubated for 4½-5 h in a humidified 37° C. air/CO2 (95%/5%) incubator. 8 μL of LiveBLAzer substrate mixture (Invitrogen # K1095) were then added to the assay plates, which were incubated overnight at RT. Fluorescence was then measured: Excitation: 405 nm; Emission: 460 nm (green channel), Emission: 535 nm (blue channel). Background was subtracted in both emission channels and the ratio 460/535 nm was calculated for each well.

JAK3 = JAK3 (Homo sapiens (Human), UniProt P52333); assay: JAK3 kinase assay (HTRF); format: biochemical
Sequence of JAK3 (P52333 822-1111): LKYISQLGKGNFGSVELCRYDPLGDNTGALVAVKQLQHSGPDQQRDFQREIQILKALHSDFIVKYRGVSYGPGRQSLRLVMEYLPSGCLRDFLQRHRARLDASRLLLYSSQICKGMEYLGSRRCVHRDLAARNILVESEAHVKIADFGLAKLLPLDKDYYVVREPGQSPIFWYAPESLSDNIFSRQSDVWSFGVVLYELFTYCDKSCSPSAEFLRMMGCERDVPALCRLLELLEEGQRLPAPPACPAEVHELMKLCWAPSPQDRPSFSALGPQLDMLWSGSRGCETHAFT
Experimental: as §1

STAT5 irfl-bla TF1 cells = assay: STAT5 assay (EPO stimulated reporter cells); format: cell-based; settings: Homo sapiens, TF-1; erythropoietin (EPO) 10 ng/mL
Experimental: Twenty-five μL of a STAT5 irfl-bla TF1 (Invitrogen # K1219) cell suspension was seeded with a density of about 10,000 cells/well in 384-well Black View-plates (PerkinElmer #6007460) with clear bottom in assay medium (Opti-MEM (Invitrogen #11058-021)+0.5% heat inactivated fetal bovine Serum (Invitrogen #10082-147)+1% non-essential amino acids (Invitrogen #11140-050)+1% sodium pyruvate (Invitrogen #11360-070)+1% penicillin/streptomycin (Invitrogen #15140-122)). The cell plates were incubated overnight in a humidified 37° C. air/CO2 (95%/5%) incubator. The following day, 125 nL of solutions of test compounds and reference compounds were transferred to cell plates using the Labcyte Echo 550 liquid handler. The plates were then incubated for 1 h in a humidified 37° C. air/CO2 (95%/5%) incubator. Hereafter recombinant human erythropoietin (EPO) (Invitrogen # PHC9634) was added to the plates also using the Labcyte Echo 550 to a final concentration of 10 ng/mL. The cells were then incubated for 4½-5 h in a humidified 37° C. air/CO2 (95%/5%) incubator. 8 μL of LiveBLAzer substrate mixture (Invitrogen # K1095) were then added to the assay plates, which were then incubated overnight at RT. Fluorescence was then measured: Excitation: 405 nm; Emission: 460 nm (green channel), Emission: 535 nm (blue channel). Background was subtracted in both emission channels and the ratio 460/535 nm was calculated for each well.

TYK2 = TYK2 (Homo sapiens (Human), UniProt P29597); assay: TYK2 kinase assay (HTRF); format: biochemical
Sequence of TYK2 (P29597 871-1187): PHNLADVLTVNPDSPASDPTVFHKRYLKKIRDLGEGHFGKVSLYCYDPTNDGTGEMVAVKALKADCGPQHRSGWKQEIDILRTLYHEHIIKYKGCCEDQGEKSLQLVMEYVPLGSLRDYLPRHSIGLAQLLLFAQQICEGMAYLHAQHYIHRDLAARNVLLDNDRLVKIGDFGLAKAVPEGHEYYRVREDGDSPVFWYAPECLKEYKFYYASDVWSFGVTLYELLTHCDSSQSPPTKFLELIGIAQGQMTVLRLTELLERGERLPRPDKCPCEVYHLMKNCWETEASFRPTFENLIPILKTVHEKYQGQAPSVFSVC
Experimental: as §1

JAK2 = JAK2 (Homo sapiens (Human), UniProt O60674); assay: JAK2 kinase assay (HTRF); format: biochemical; settings: ATP at Km (4 μM)
Sequence of JAK2 (O60674 849-1124): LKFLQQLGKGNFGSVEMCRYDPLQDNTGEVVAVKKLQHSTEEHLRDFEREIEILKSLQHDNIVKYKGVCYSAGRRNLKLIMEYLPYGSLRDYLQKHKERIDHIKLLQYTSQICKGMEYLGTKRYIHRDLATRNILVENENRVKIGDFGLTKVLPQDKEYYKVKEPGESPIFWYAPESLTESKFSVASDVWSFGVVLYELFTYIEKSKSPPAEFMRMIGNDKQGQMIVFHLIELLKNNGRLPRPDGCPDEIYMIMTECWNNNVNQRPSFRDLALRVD
Experimental: as §1

Sequence of JAK1 (P23458 850-1154): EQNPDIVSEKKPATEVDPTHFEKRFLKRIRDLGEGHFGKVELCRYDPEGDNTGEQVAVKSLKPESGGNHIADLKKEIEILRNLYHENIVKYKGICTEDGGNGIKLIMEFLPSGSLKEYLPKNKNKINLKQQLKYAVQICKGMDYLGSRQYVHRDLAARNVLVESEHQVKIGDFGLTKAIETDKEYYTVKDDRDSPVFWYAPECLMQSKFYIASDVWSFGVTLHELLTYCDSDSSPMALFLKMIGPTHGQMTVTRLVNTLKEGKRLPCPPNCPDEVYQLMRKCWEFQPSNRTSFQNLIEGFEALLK

Row | SMILES | EC50 (JAK1; ATP at Km (7 μM)) [nM] | JAK2/JAK1 ratio (JAK1) | JAK3/JAK1 ratio (JAK1) | EC50 (STAT6 bla-RA1 cells) [nM] | STAT5/STAT6 EC50 ratio (selectivity for STAT6 over STAT5) (STAT6 bla-RA1 cells) | EC50 (JAK3; ATP at Km (2 μM)) [nM] | EC50 (STAT5 irfl-bla TF1 cells) [nM] | EC50 (TYK2; ATP at Km (13 μM)) [nM] | EC50 (JAK2) [nM] | EC50 (JAK1) [nM] | EC50 (JAK3) [nM] | EC50 (TYK2) [nM]
1 | CNc1cc2c(cn1)nc(C(C)O)n2[C@H]1CC[C@@H](CC#N)CC1 (stereo partly drawn) [Example 6, cis-2-[4-[2-[1-Hydroxyethyl]-6-(methylamino)imidazo[4,5-c]pyridin-1-yl]cyclohexyl]acetonitrile] | 508 | 5.2 | 5.6 | 8570 | >5.8 | 2870 | > 49800 | 1110 | 2640 |  |  | 
2 | [2H]C([2H])([2H])C([2H])(O)c1nc2cnc(NC)cc2n1[C@H]1CC[C@H](CC#N)CC1 (stereo partly drawn) [Example 5, trans-2-[4-[2-[1,2,2,2-Tetradeuterio-1-hydroxyethyl]-6-(methylamino)imidazo[4,5-c]pyridin-1-yl]cyclohexyl]acetonitrile] |  | 36 | 380 | 270 | 34 |  | 9240 |  | 301 | 8.41 | 3200 | 102
3 | CNc1cc2c(cn1)nc([C@H](C)O)n2[C@H]1CC[C@H](CC#N)CC1 [Example 2, trans-2-[4-[2-[(1S)-1-Hydroxyethyl]-6-(methylamino)imidazo[4,5-c]pyridin-1-yl]cyclo-hexyl]acetonitrile] |  | 25 | 221 | 1160 | >37 |  | > 42600 |  | 1130 | 44.4 | 9820 | 466
4 | CNc1cc2c(cn1)nc(C(C)O)n2[C@H]1CC[C@H](CC#N)CC1 (stereo partly drawn) [Example 1, trans-2-[4-[2-[1-Hydroxyethyl]-6-(methylamino)imidazo[4,5-c]pyridin-1-yl]cyclohexyl]acetonitrile] | 10.8 | 49 | 487 | 237 | 62 | 5260 | 14600 | 111 | 530 |  |  | 
5 | [2H]C([2H])([2H])Nc1cc2c(cn1)nc([C@@H](C)O)n2[C@H]1CC[C@H](CC#N)CC1 [Example 4, trans-2-[4-[2-[(1R)-1-Hydroxyethyl]-6-(trideuteriomethylamino)imidazo[4,5-c]pyridin-1-yl]cyclohexyl]acetonitrile] |  | 44 | 668 | 141 | 50 |  | 7080 |  | 153 | 3.46 | 2310 | 43
6 | CNc1cc2c(cn1)nc([C@@H](C)O)n2[C@H]1CC[C@@H](CC#N)CC1 [Example 7, cis-2-[4-[2-[(1R)-1-Hydroxyethyl]-6-(methylamino)imidazo[4,5-c]pyridin-1-yl]cyclohexyl]acetonitrile] | 129 | 7.6 | 7.8 | 3460 | >14 | 1010 | > 49800 | 443 | 981 |  |  | 
